# In patent publication US20260107941A1:
# Several values for one entry are separate records, joined by “and”; a condition that tells them apart may be missing. Equal values may be shown once.
# Experiments:
# Fusarium oxysporum = test: Mycelial growth rate method, toxicity to Fusarium oxysporum; assay type: cell-based; settings: F. oxysporum, mycelial growth on drug-containing PDA plate, 28° C., 3 d to 7 d
# Procedure: (§1) A PDA solid medium was heated, melted, shaken, and cooled to about 45° C.; a medicinal solution (filtered with a 0.22 μm sterile filter) and the PDA solid medium were mixed, cooled to obtain a drug-containing medium plate with a certain concentration; a phytopathogen cake was placed in the center of the plate, and cultured at 28° C. for 3 d to 7 d; when the hyphae of the phytopathogen in the control group were about to fill the dish, a colony diameter was measured using a cross method, and the mycelial growth inhibition rate and toxicity were calculated. [formula]
# Rhizoctonia solani [1] = test: Mycelial growth rate method, toxicity to Rhizoctonia solani; assay type: cell-based; settings: R. solani, mycelial growth on drug-containing PDA plate, 28° C., 3 d to 7 d
# Procedure: as §1
# [2] = system: Colletotrichum orbiculare; test: Mycelial growth rate method, toxicity to Colletotrichum orbiculare; assay type: cell-based; settings: C. orbiculare, mycelial growth on drug-containing PDA plate, 28° C., 3 d to 7 d
# Procedure: as §1
# Xanthomonas oryzae = test: microbe, parasite or virus in culture; assay type: cell-based
# Rhizoctonia solani [3] = test: Pot method, control effect on Rhizoctonia solani in cotton seedlings; assay type: in vivo; settings: 50 mL applied on 1 d, 3 d, 5 d, 7 d, after 10 d
# Procedure: A Rhizoctonia solani suspension (10^7 CFU/mL) was added to a matrix at a ratio of 20:1 (w/w), mixed well, germinated cotton seeds were sown into the matrix, and then 50 mL of the medicinal solution was applied on 1 d, 3 d, 5 d, and 7 d separately. After culturing for 10 d, the incidence rate was investigated and the control effect was calculated.
# [4] = system: Pseudomonas syringae pv. lachrymans; test: microbe, parasite or virus in culture; assay type: cell-based; settings: P. syringae pv. lachrymans
# Alternaria alternata = test: Mycelial growth rate method, toxicity to Alternaria alternata; assay type: cell-based; settings: A. alternata, mycelial growth on drug-containing PDA plate, 28° C., 3 d to 7 d
# Procedure: as §1
# Cladosporium fulvum = test: Mycelial growth rate method, toxicity to Cladosporium fulvum; assay type: cell-based; settings: Fulvia fulva; C. fulvum; mycelial growth on drug-containing PDA plate, 28° C., 3 d to 7 d
# Procedure: as §1
# pear fire blight = test: Field test, control effect on pear fire blight in fragrant pear orchards; settings: 3 L sprayed per pear tree, 3 times at 7 d/time
# Acidovorax citrulli = test: Turbidity method, toxicity to Acidovorax citrulli; assay type: cell-based; settings: Paracidovorax citrulli; A. citrulli; turbidity in NB medium, shaking culture 30° C., 2 d to 3 d
# Erwinia amylovory = test: Turbidity method, toxicity to Erwinia amylovory; assay type: cell-based; settings: E. amylovory, turbidity in NB medium, shaking culture 30° C., 2 d to 3 d
compound,measurement,setting,value
CCN(CC)c1ccc(C=O)c(O)c1,EC50,Fusarium oxysporum,40.8 µg/mL
same,EC50,Rhizoctonia solani [1],14.5 µg/mL
same,EC50,[2],93.8 µg/mL
same,EC50,Xanthomonas oryzae,136 µg/mL
same,Control effect (%),Rhizoctonia solani [3]; 50 mg/L,60.66% and 60.66c %
same,Incidence (%),Rhizoctonia solani [3]; 50 mg/L,20.00%
same,Control effect (%),Rhizoctonia solani [3]; 100 mg/L,77.05% and 77.05b %
same,Incidence (%),Rhizoctonia solani [3]; 100 mg/L,11.67%
same,Control effect (%),Rhizoctonia solani [3]; 150 mg/L,86.89% and 86.89a %
same,Incidence (%),Rhizoctonia solani [3]; 150 mg/L,6.67%
same,EC50,[4],114 µg/mL
same,EC50,Alternaria alternata,200 µg/mL
same,EC50,Cladosporium fulvum,113 µg/mL
same,Control effect (%) 7 d after last dose,pear fire blight; 200 mg/L,40.85c %
same,Control effect (%) 14 d after last dose,pear fire blight; 200 mg/L,35.14c %
same,Control effect (%) 7 d after last dose,pear fire blight; 300 mg/L,50.37% and 50.37b %
same,Control effect (%) 14 d after last dose,pear fire blight; 300 mg/L,44.71% and 44.71b %
same,Control effect (%) 7 d after last dose,pear fire blight; 400 mg/L,58.13% and 58.13a %
same,Control effect (%) 14 d after last dose,pear fire blight; 400 mg/L,50.81% and 50.81a %
same,EC50,Acidovorax citrulli,108 µg/mL
same,EC50,Erwinia amylovory,92.1 µg/mL
"COC(=O)Nc1nc2ccccc2[nH]1 [carbendazim, reference compound]",Control effect (%),Rhizoctonia solani [3]; 100 mg/L,49.18d %
same,Incidence (%),Rhizoctonia solani [3]; 100 mg/L,25.83%
zhongshengmycin [reference compound],Control effect (%) 7 d after last dose,pear fire blight; 50 mg/L,53.06ab %
same,Control effect (%) 14 d after last dose,pear fire blight; 50 mg/L,47.36b %
